In ChEMBL document CHEMBL1201862, “PubChem BioAssay data set” (2004):
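Results reflect a 48-hour exposure of cells in 96-well plates to compound at five concentrations. GI50: concentration for 50% inhibition of growth.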 Active and inactive are the calls of the source. No stated cut-off is given here; in the data, active = GI50 up to about 1.1 µM and inactive = higher.

What was measured:
Experiment in all cases: NCI tumour cell line growth inhibition, 48 h
MOLT-4 = tested on: MOLT-4
SK-MEL-5 = tested on: SK-MEL-5
SR = tested on: SR
ACHN = tested on: ACHN
SF-268 = tested on: SF-268
NCI-H522 = tested on: NCI-H522
A498 = tested on: A498
SN12C = tested on: SN12C
SNB-19 = tested on: SNB-19
OVCAR-5 = tested on: OVCAR-5
MDA-MB-231 = tested on: MDA-MB-231
OVCAR-4 = tested on: OVCAR-4
CCRF-CEM = tested on: CCRF-CEM
SK-MEL-28 = tested on: SK-MEL-28
SK-OV-3 = tested on: SK-OV-3
HL-60 = tested on: HL-60
UACC-62 = tested on: UACC-62
COLO 205 = tested on: COLO 205
T47D = tested on: T47D
BT-549 = tested on: BT-549
NCI/ADR-RES = tested on: NCI/ADR-RES
K562 = tested on: K562
DU-145 = tested on: DU-145
HCC 2998 = tested on: HCC 2998
MCF7 = tested on: MCF7
KM12 = tested on: KM12
NCI-H226 = tested on: NCI-H226
NCI-H23 = tested on: NCI-H23
A549 = tested on: A549
786-0 = tested on: 786-0
U-251 = tested on: U-251
HCT-116 = tested on: HCT-116
HOP-62 = tested on: HOP-62
UACC-257 = tested on: UACC-257
OVCAR-8 = tested on: OVCAR-8
SNB-75 = tested on: SNB-75
NCI-H460 = tested on: NCI-H460
CAKI-1 = tested on: CAKI-1
HT-29 = tested on: HT-29
Hs-578T = tested on: Hs-578T
OVCAR-3 = tested on: OVCAR-3
UO-31 = tested on: UO-31
TK-10 = tested on: TK-10
SF-539 = tested on: SF-539
SK-MEL-2 = tested on: SK-MEL-2
EKVX = tested on: EKVX
SW-620 = tested on: SW-620
PC-3 = tested on: PC-3
SF-295 = tested on: SF-295
HCT-15 = tested on: HCT-15
IGROV-1 = tested on: IGROV-1
Malme-3M = tested on: Malme-3M
MDA-N = tested on: MDA-N
M14 = tested on: M14
RXF 393 = tested on: RXF 393
MDA-MB-435 = tested on: MDA-MB-435
HOP-92 = tested on: HOP-92
RPMI-8226 = tested on: RPMI-8226
LOX IMVI = tested on: LOX IMVI

Measured: GI50

CC1(C)CCc2c(cc3c(c2O)CCC(C)(C)O3)O1
64.7 µM: HCT-15
inactive: MOLT-4 62.4 µM | SK-MEL-5 62.8 µM | SR 76.6 µM | ACHN > 100 µM | SF-268 > 100 µM | NCI-H522 61.1 µM | A498 > 100 µM | SN12C > 100 µM | SNB-19 > 100 µM | OVCAR-5 > 100 µM | MDA-MB-231 > 100 µM | OVCAR-4 > 100 µM | CCRF-CEM 67.8 µM | SK-MEL-28 > 100 µM | SK-OV-3 > 100 µM | HL-60 27.3 µM | UACC-62 > 100 µM | COLO 205 > 100 µM | T47D 41.8 µM | BT-549 > 100 µM | NCI/ADR-RES > 100 µM | K562 48.8 µM | DU-145 > 100 µM | HCC 2998 > 100 µM | MCF7 > 100 µM | KM12 > 100 µM | NCI-H226 > 100 µM | NCI-H23 > 100 µM | A549 > 100 µM | 786-0 > 10 µM | U-251 > 100 µM | HCT-116 61.2 µM | HOP-62 > 100 µM | UACC-257 > 100 µM | OVCAR-8 > 100 µM | SNB-75 80.5 µM | NCI-H460 57 µM | CAKI-1 > 100 µM | HT-29 35.8 µM | Hs-578T > 100 µM | OVCAR-3 > 100 µM | UO-31 > 100 µM | TK-10 > 100 µM | SF-539 > 100 µM | SK-MEL-2 25.1 µM | EKVX > 100 µM | SW-620 > 100 µM | PC-3 49.3 µM | SF-295 96.8 µM | IGROV-1 > 100 µM | Malme-3M 12.3 µM | MDA-N > 100 µM | M14 > 100 µM

CCOC(=O)CCC(C(=O)OCC)n1nc2ccc(Nc3c(C)[n+]([O-])c4ccc(Cl)cc4[n+]3[O-])cc2n1 (stereo unspecified)
17.6 µM: HCT-15
inactive: MOLT-4 27.9 µM | SK-MEL-5 21.8 µM | SR 34.1 µM | ACHN 15.8 µM | SF-268 12.2 µM | NCI-H522 30.1 µM | A498 23.6 µM | RXF 393 13 µM | SN12C 18.9 µM | SNB-19 30.1 µM | MDA-MB-435 30.2 µM | OVCAR-5 30.9 µM | OVCAR-4 28.8 µM | CCRF-CEM 41.2 µM | HOP-92 20.9 µM | SK-OV-3 21.2 µM | HL-60 38.2 µM | UACC-62 26.6 µM | COLO 205 32.7 µM | T47D 21.7 µM | BT-549 28.1 µM | NCI/ADR-RES 18.8 µM | K562 41.4 µM | DU-145 20.1 µM | HCC 2998 2.93 µM | MCF7 24.1 µM | KM12 56.8 µM | NCI-H226 20.3 µM | NCI-H23 21.5 µM | RPMI-8226 44.9 µM | A549 17.6 µM | LOX IMVI 14.4 µM | 786-0 16.5 µM | U-251 15 µM | HCT-116 20.6 µM | HOP-62 17 µM | UACC-257 24.5 µM | OVCAR-8 21.5 µM | NCI-H460 17 µM | CAKI-1 33.1 µM | HT-29 30.9 µM | Hs-578T 21.4 µM | OVCAR-3 24.9 µM | UO-31 15.5 µM | TK-10 28.9 µM | SF-539 20.7 µM | SK-MEL-2 20 µM | EKVX 17.5 µM | SW-620 33.7 µM | PC-3 26.5 µM | SF-295 16.8 µM | IGROV-1 42.4 µM | Malme-3M 30.1 µM | MDA-N 42.8 µM | M14 24.1 µM

CCOP1(=O)C=C(Sc2ccc([N+](=O)[O-])cc2[N+](=O)[O-])C(C)(C)O1 (stereo unspecified)
14.7 µM: HCT-15
inactive: MOLT-4 4.13 µM | SK-MEL-5 9.86 µM | SR 3.59 µM | ACHN 14.5 µM | SF-268 17.6 µM | NCI-H522 3.64 µM | A498 25.6 µM | RXF 393 17.9 µM | SN12C 10.3 µM | SNB-19 27.6 µM | MDA-MB-435 11.4 µM | OVCAR-5 21.2 µM | OVCAR-4 13.5 µM | CCRF-CEM 2.42 µM | SK-MEL-28 16.2 µM | HOP-92 7.26 µM | SK-OV-3 27.2 µM | HL-60 3.41 µM | UACC-62 11.5 µM | COLO 205 10.5 µM | T47D 14.6 µM | BT-549 17.5 µM | NCI/ADR-RES 25.3 µM | K562 2.52 µM | DU-145 13.4 µM | HCC 2998 18.6 µM | MCF7 3.99 µM | KM12 16.5 µM | NCI-H226 25.5 µM | NCI-H23 18.3 µM | RPMI-8226 5.25 µM | A549 19.9 µM | LOX IMVI 3.83 µM | 786-0 8.81 µM | U-251 14.9 µM | HCT-116 5.42 µM | HOP-62 27.9 µM | UACC-257 12.3 µM | OVCAR-8 16.7 µM | SNB-75 19.8 µM | NCI-H460 21 µM | CAKI-1 11.7 µM | HT-29 8.39 µM | Hs-578T 26.7 µM | OVCAR-3 11.6 µM | UO-31 14.9 µM | TK-10 17.1 µM | SF-539 11.7 µM | SK-MEL-2 11.3 µM | EKVX 14.4 µM | SW-620 11.6 µM | PC-3 11.9 µM | SF-295 17.9 µM | IGROV-1 16.5 µM | Malme-3M 12 µM | MDA-N 5.07 µM | M14 11.9 µM

O=C1CCCCC/C1=C\c1ccccc1
> 100 µM: HCT-15
inactive: MOLT-4 80.9 µM | SK-MEL-5 45 µM | SR > 100 µM | ACHN > 100 µM | SF-268 > 100 µM | NCI-H522 > 100 µM | A498 > 100 µM | SN12C > 100 µM | SNB-19 > 100 µM | MDA-MB-435 76 µM | OVCAR-5 > 100 µM | MDA-MB-231 > 100 µM | OVCAR-4 67.6 µM | SK-MEL-28 > 100 µM | HOP-92 > 100 µM | SK-OV-3 > 100 µM | HL-60 18.2 µM | UACC-62 63.4 µM | COLO 205 > 100 µM | T47D > 100 µM | BT-549 > 100 µM | K562 > 100 µM | DU-145 > 100 µM | HCC 2998 > 100 µM | KM12 > 100 µM | NCI-H226 67.1 µM | NCI-H23 > 100 µM | RPMI-8226 56.4 µM | A549 > 100 µM | LOX IMVI > 100 µM | 786-0 > 100 µM | U-251 > 100 µM | HCT-116 > 100 µM | HOP-62 > 100 µM | UACC-257 > 100 µM | SNB-75 87.3 µM | NCI-H460 90.6 µM | CAKI-1 > 100 µM | HT-29 > 100 µM | Hs-578T > 100 µM | OVCAR-3 > 100 µM | UO-31 > 100 µM | TK-10 > 100 µM | SK-MEL-2 > 100 µM | EKVX > 100 µM | SW-620 > 100 µM | PC-3 > 100 µM | SF-295 > 100 µM | IGROV-1 > 100 µM | Malme-3M > 100 µM | MDA-N > 100 µM | M14 > 100 µM

COC(=O)C(Cc1nc2ccccc2nc1O)C(=O)C(=O)Nc1cc(C(F)(F)F)ccc1Cl (stereo unspecified)
13.8 µM: HCT-15
inactive: MOLT-4 6.17 µM | SK-MEL-5 20.4 µM | SR 4.58 µM | ACHN 12.1 µM | SF-268 14.2 µM | NCI-H522 3.87 µM | A498 24 µM | RXF 393 13.8 µM | SN12C 20.5 µM | MDA-MB-435 19.4 µM | OVCAR-5 19.4 µM | MDA-MB-231 22.2 µM | OVCAR-4 12.1 µM | CCRF-CEM 1.51 µM | SK-MEL-28 25.4 µM | HOP-92 11.6 µM | SK-OV-3 35.3 µM | HL-60 10.3 µM | UACC-62 18.2 µM | T47D 15.1 µM | BT-549 14.9 µM | NCI/ADR-RES 15.6 µM | K562 12 µM | HCC 2998 13.6 µM | MCF7 14.4 µM | KM12 14.5 µM | NCI-H226 18 µM | NCI-H23 14.2 µM | RPMI-8226 7.01 µM | A549 69.2 µM | LOX IMVI 16.2 µM | 786-0 12.6 µM | U-251 9.91 µM | HCT-116 18.2 µM | HOP-62 17.4 µM | UACC-257 28.3 µM | OVCAR-8 12.1 µM | SNB-75 18.6 µM | NCI-H460 19 µM | CAKI-1 15.4 µM | HT-29 15.3 µM | Hs-578T 12.7 µM | OVCAR-3 12.8 µM | UO-31 15.5 µM | TK-10 21.1 µM | SK-MEL-2 16.1 µM | EKVX 15 µM | SW-620 13.8 µM | PC-3 17 µM | SF-295 28.3 µM | IGROV-1 12.2 µM | Malme-3M 14.1 µM | MDA-N 25.9 µM | M14 16.7 µM
